In PMC10256202, “Allosteric regulation of Senecavirus A 3C^pro proteolytic activity by an endogenous phospholipid” (PLOS Pathogens, 2023):

Biological target: T1, SVA 3C^pro (Seneca Valley virus USA/SSV-001, UniProt Q155Z9)
T1 construct: full-length mature 3C cut from the genome polyprotein; codon-optimized, E. coli BL21(DE3); N-terminal His6-SUMO tag removed by ULP1 (lipid strips: His-tagged protein)
Experiment: CL-specific ELISA of lipid co-purified with the protein
Settings: endogenous E. coli lipid extracted by heating; lipid-binding (allosteric) site

T1 sequence (Q155Z9 1509-1719): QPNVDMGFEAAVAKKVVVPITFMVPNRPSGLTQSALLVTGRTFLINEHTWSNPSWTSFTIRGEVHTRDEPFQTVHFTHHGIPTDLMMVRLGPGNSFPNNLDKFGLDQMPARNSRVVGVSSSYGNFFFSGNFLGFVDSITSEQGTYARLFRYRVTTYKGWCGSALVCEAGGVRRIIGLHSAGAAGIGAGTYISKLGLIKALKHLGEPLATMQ

Substance: cardiolipin [CL]
- lipid content: ~ 24.2 μg/L
